Key:
Format in all cases: in vivo
[1] = Mortality and apparent toxicity, 20 weeks in 3×Tg mice; settings: 1 and 5 mg/kg in drinking water
Method: (§1) Female and male 3×Tg mice (MMRRC #034830) were treated daily for 20 weeks with PTG-670 trihydrochloride at 1 and 5 mg/kg in drinking water starting at 19 weeks of age (˜5 months old) (just before cognitive deficits onset).
• 1—Control (B6129SF2/J Jax 101045)), N=7 male, N=7 female, • 2—3×Tg, N=7 male, N=7 female, • 3—3×Tg+PTG-670 1 mg/kg drinking water, N=7 male, N=7 female, • 4—3×Tg+PTG-670 5 mg/kg drinking water, N=7 male, N=7 female.
No mice died during the course of the study.

3×Tg mice [2] = assay: Tactile response (manual von Frey filaments), 3×Tg mice; settings: 3×Tg mice did not develop tactile allodynia
Method: as §1
(§2) Tactile and thermal responses were assessed at 5 and 11 weeks. Motor nerve conduction velocity (NCV) was measured at 8, 12 and 20 weeks after treatment. Learning and memory were assessed using the Barnes maze test and the object recognition test at 6, 12, and 18 weeks of treatment. Corneal nerves were imaged by corneal confocal microscopy (CCM) at week 5, 11 and 17. Data represent male and female results combined, unless specified, mean±sem.

3×Tg mice [3] = assay: Thermal response to heat stimuli, 3×Tg mice; settings: 3×Tg mice did not develop significant hypoalgesia
Method: as §1, §2

3×Tg mice [4] = assay: Motor nerve conduction velocity (NCV), 3×Tg mice; settings: male 3×Tg mice, 20 weeks time point
Method: as §1, §2
Male 3×Tg mice develop significant (p<0.05) nerve conduction velocity slowing by 9 months of age (20 weeks time point) (data not shown). The slowing of NCV was prevented by treatment with PTG-670 at both 1 and 5 mg/kg in drinking water.

3×Tg mice [5] = assay: Barnes maze learning abilities, 3×Tg mice
Method: as §1, §2
Learning abilities assessed using the Barnes maze were impaired in 3×Tg mice in both male and female around 6-7 months, conform with the literature (Stover et al., 2015).

3×Tg mice [6] = assay: Barnes maze long-term memory, 3×Tg mice
Method: as §1, §2
Using the Barnes maze test, long-term memory was assessed between week 12 and 18 of treatment.

3×Tg mice [7] = assay: Object Recognition test, 3×Tg mice; settings: for short term episodic memory deficits in Object recognition test: 5 mg/kg
Method: as §1, §2

4-hydroxynonal (4-HNE) = assay: Lipid peroxidation, 4-HNE Oxiselect Elisa in hippocampus homogenates, 3×Tg mice; settings: 5 mg/kg
Method: as §1
Lipid peroxidation was assessed using the 4-Hydroxynonal (4-HNE) Oxiselect Elisa in hippocampus homogenates.

Drebrin = assay: Western blot of hippocampus, 3×Tg mice: Drebrin
Method: as §1
(§3) Mouse Hippocampus were processed for Western blotting analysis of Drebrin (actin binding protein in dendritic spines, role in neuronal growth, a decrease is a contributing factor in the pathogenesis of memory disturbance), PSD95 (a post-synaptic protein, role in the regulation of excitatory synapse maturity), and NeuN (neuronal nuclear antigen, biomarker for neurons, decrease=neuronal loss) (FIG. 12). The reduced drebrin levels in the hippocampus of 3×Tg mice was ameliorated by 20 weeks of treatment with PTG-670 at 5 mg/kg in drinking water only for female mice. Similarly, levels of PSD95 protein tend to decrease in 3×Tg mice and to be ameliorated by 5 mg/kg PTG670.

PSD95 = assay: Western blot of hippocampus, 3×Tg mice: PSD95
Method: as §1, §3

NeuN = assay: Western blot of hippocampus, 3×Tg mice: NeuN
Method: as §1, §3

## Cc1ncc(CN2CCCCCC2)c(-c2ncc[nH]2)c1O [PTG-670, 5-(azepan-1-ylmethyl)-4-(1H-imidazol-2-yl)-2-methylpyridin-3-ol]
[1]
  apparent toxicity: No apparent toxicity was observed
3×Tg mice [2]
  responses to von Frey filaments: did not affect mice responses to von Frey filaments
3×Tg mice [3]
  responses to heat stimuli: did not affect the 3×Tg mice responses to heat stimuli
3×Tg mice [4]; 1 mg/kg in drinking water
  slowing of NCV: prevented
3×Tg mice [4]; 5 mg/kg in drinking water
  slowing of NCV: prevented
3×Tg mice [5]; female 3×Tg mice, 1 mg/kg for 18 weeks
  learning abilities in Barnes maze: significantly improved learning abilities to level similar to control
3×Tg mice [5]; male 3×Tg mice
  learning deficits in Barnes maze: did not improve learning deficits
3×Tg mice [6]; female 3×Tg mice, 1 mg/kg, by week 18 of treatment
  long-term memory impairment in Barnes maze: significantly (p<0.05) prevented
3×Tg mice [6]; male 3×TG mice
  memory abilities in Barnes maze: No difference in memory abilities or effect
3×Tg mice [7]; after 6 weeks of treatment
  short term episodic memory deficits in Object recognition test: significantly (p<0.05) ameliorated
3×Tg mice [7]; after 18 weeks of treatment
  short term episodic memory deficits in Object recognition test: significantly (p<0.05) ameliorated
3×Tg mice [7]; FIG. 10 legend, 6 to 18 weeks of treatment
  short-term episodic memory (recognition index): alleviated
4-hydroxynonal (4-HNE)
  4-HNE levels in hippocampus: tend to reduce HNE levels
Drebrin; female mice only, 5 mg/kg in drinking water, 20 weeks
  reduced drebrin levels in hippocampus: ameliorated
Drebrin; male 3×Tg mice
  Drebrin in hippocampus: No differences were observed
PSD95; 5 mg/kg, tendency
  levels of PSD95 protein in hippocampus: ameliorated
PSD95; male 3×Tg mice
  PSD95 in hippocampus: No differences were observed
NeuN; female mice only, 5 mg/kg
  neuronal loss (NeuN) in hippocampus: significantly (p<0.05) elevated
NeuN; male 3×Tg mice
  NeuN in hippocampus: No differences were observed
